What was measured:
SK-MEL-2 = assay: Cytotoxicity against human SK-MEL-2 cells by SRB assay; format: functional
EKVX = assay: Cytotoxicity against human EKVX cells by SRB assay; format: functional
NCI-H522 = assay: Cytotoxicity against human NCI-H522 cells by SRB assay; format: functional
SNB-75 = assay: Cytotoxicity against human SNB75 cells by SRB assay; format: functional
KM12 = assay: Cytotoxicity against human KM12 cells by SRB assay; format: functional
[1] = Cytotoxicity against human Colon cancer cells by SRB assay; format: functional; conditions: Cancer cell lines
HOP-92 = assay: Cytotoxicity against human HOP92 cells by SRB assay; format: functional
T47D = assay: Cytotoxicity against human T47D cells by SRB assay; format: functional
MOLT-4 = assay: Cytotoxicity against human MOLT4 cells by SRB assay; format: functional
SK-OV-3 = assay: Cytotoxicity against human SKOV3 cells by SRB assay; format: functional
HCT-116 = assay: Cytotoxicity against human HCT116 cells by SRB assay; format: functional
U-251 = assay: Cytotoxicity against human U251 cells by SRB assay; format: functional
OVCAR-8 = assay: Cytotoxicity against human OVCAR8 cells by SRB assay; format: functional
A498 = assay: Cytotoxicity against human A498 cells by SRB assay; format: functional
NCI-H226 = assay: Cytotoxicity against human NCI-H226 cells by SRB assay; format: functional
K562 = assay: Cytotoxicity against human K562 cells by SRB assay; format: functional
NCI-H460 = assay: Cytotoxicity against human NCI-H460 cells by SRB assay; format: functional
HCT-15 = assay: Cytotoxicity against human HCT15 cells by SRB assay; format: functional
[2] = Cytotoxicity against human melanoma cells by SRB assay; format: functional; conditions: Melanoma cell
NCI-H23 = assay: Cytotoxicity against human NCI-H23 cells by SRB assay; format: functional
CAKI-1 = assay: Cytotoxicity against human Caki1 cells by SRB assay; format: functional
[3] = Cytotoxicity against human HL60(TB) cells by SRB assay; format: functional, HL-60(TB); conditions: HL-60
M14 = assay: Cytotoxicity against human M14 cells by SRB assay; format: functional
ACHN = assay: Cytotoxicity against human ACHN cells by SRB assay; format: functional
[4] = Cytotoxicity against human Hs 578T cells by SRB assay; format: functional
[5] = Cytotoxicity against human renal cancer cells by SRB assay; format: functional; conditions: Cancer cell lines
OVCAR-3 = assay: Cytotoxicity against human OVCAR-3 cells by SRB assay; format: functional
UACC-257 = assay: Cytotoxicity against human UACC257 cells by SRB assay; format: functional
RPMI-8226 = assay: Cytotoxicity against human RPMI8226 cells by SRB assay; format: functional
[6] = Cytotoxicity against human prostate cancer cells by SRB assay; format: functional; conditions: Cancer cell lines
MDA-MB-231 = assay: Cytotoxicity against human MDA-MB-231 cells by SRB assay; format: functional
IGROV-1 = assay: Cytotoxicity against human IGROV1 cells by SRB assay; format: functional
HT-29 = assay: Cytotoxicity against human HT29 cells by SRB assay; format: functional
NSCLC = assay: Cytotoxicity against human NSCLC cells by SRB assay; format: functional
DU-145 = assay: Cytotoxicity against human DU145 cells by SRB assay; format: functional
SR = assay: Cytotoxicity against human SR cells by SRB assay; format: functional
LOX IMVI = assay: Cytotoxicity against human LOXIMVI cells by SRB assay; format: functional
NCI-H322M = assay: Cytotoxicity against human NCI-H322M cells by SRB assay; format: functional
UACC-62 = assay: Cytotoxicity against human UACC62 cells by SRB assay; format: functional
SK-MEL-5 = assay: Cytotoxicity against human SK-MEL-5 cells by SRB assay; format: functional
[7] = Cytotoxicity against human 786-O cells by SRB assay; format: functional; conditions: 786-0
SNB-19 = assay: Cytotoxicity against human SNB19 cells by SRB assay; format: functional
OVCAR-4 = assay: Cytotoxicity against human OVCAR4 cells by SRB assay; format: functional
HOP-62 = assay: Cytotoxicity against human HOP62 cells by SRB assay; format: functional
[8] = Cytotoxicity against human CNS cancer cells by SRB assay; format: functional; conditions: Cancer cell lines
MCF7 = assay: Cytotoxicity against human MCF7 cells by SRB assay; format: functional
SF-295 = assay: Cytotoxicity against human SF295 cells by SRB assay; format: functional
UO-31 = assay: Cytotoxicity against human UO31 cells by SRB assay; format: functional
MDA-N = assay: Cytotoxicity against human MDA-N cells by SRB assay; format: functional
CCRF-CEM = assay: Cytotoxicity against human CCRF-CEM cells by SRB assay; format: functional
COLO 205 = assay: Cytotoxicity against human COLO205 cells by SRB assay; format: functional
OVCAR-5 = assay: Cytotoxicity against human OVCAR5 cells by SRB assay; format: functional
[9] = Cytotoxicity against human breast cancer cells by SRB assay; format: functional; conditions: Cancer cell lines
BT-549 = assay: Cytotoxicity against human BT549 cells by SRB assay; format: functional
Malme-3M = assay: Cytotoxicity against human MALME-3M cells by SRB assay; format: functional
SF-268 = assay: Cytotoxicity against human SF268 cells by SRB assay; format: functional
SW-620 = assay: Cytotoxicity against human SW620 cells by SRB assay; format: functional
A549 = assay: Cytotoxicity against human A549 cells by SRB assay; format: functional
RXF 393 = assay: Cytotoxicity against human RXF393 cells by SRB assay; format: functional
[10] = Cytotoxicity against human MCF7/ADR cells by SRB assay; format: functional; conditions: NCI/ADR-RES
[11] = Cytotoxicity against human ovarian cancer cells by SRB assay; format: functional; conditions: Cancer cell lines
SN12C = assay: Cytotoxicity against human SN12C cells by SRB assay; format: functional
Leukemia cell = assay: Cytotoxicity against human Leukemia cells by SRB assay; format: functional
PC-3 = assay: Cytotoxicity against human PC3 cells by SRB assay; format: functional
MDA-MB-435 = assay: Cytotoxicity against human MDA-MB-435 cells by SRB assay; format: functional
HCC 2998 = assay: Cytotoxicity against human HCC2998 cells by SRB assay; format: functional
SK-MEL-28 = assay: Cytotoxicity against human SK-MEL-28 cells by SRB assay; format: functional

COC(C)(C)[C@@H](O)[C@H]1C[C@H](C)[C@@]2(CC[C@]3(C)[C@@H]2CC[C@@H]2[C@@]4(C)CC[C@@H](OC(C)=O)C(C)(C)[C@@H]4C[C@@H](O[C@@H]4O[C@H](COC(C)=O)[C@@H](O)[C@H](O)[C@H]4O)[C@]23C)O1
GI50 (SK-MEL-2): 6.17 µM
GI50 (EKVX): 5.5 µM
GI50 (NCI-H522): 4.57 µM
GI50 (SNB-75): 3.55 µM
GI50 (KM12): 1.32 µM
TGI (KM12): 2 µM
TGI [1]: 6.9 µM
GI50 (HOP-92): 12.9 µM
GI50 (T47D): 4.17 µM
GI50 (MOLT-4): 2.29 µM
GI50 (SK-OV-3): 4.79 µM
GI50 (HCT-116): 2.69 µM
TGI (HCT-116): 10 µM
GI50 (U-251): 5.37 µM
GI50 (OVCAR-8): 5.25 µM
GI50 (A498): 13.2 µM
GI50 (NCI-H226): 4.79 µM
GI50 (K562): 3.09 µM
GI50 (NCI-H460): 3.8 µM
GI50 (HCT-15): 2.4 µM
TGI (HCT-15): 5.6 µM
TGI [2]: 20.2 µM
GI50 (NCI-H23): 9.33 µM
GI50 (CAKI-1): 5.37 µM
GI50 [3]: 2.34 µM
GI50 (M14): 4.47 µM
GI50 (ACHN): 5.25 µM
GI50 [4]: 4.07 µM
TGI [5]: 17.9 µM
GI50 (OVCAR-3): 4.79 µM
GI50 (UACC-257): 5.89 µM
GI50 (RPMI-8226): 2.4 µM
TGI [6]: 13.1 µM
GI50 (MDA-MB-231): 11 µM
GI50 (IGROV-1): 4.37 µM
GI50 (HT-29): 1.86 µM
TGI (HT-29): 4 µM
TGI (NSCLC): 17.8 µM
GI50 (DU-145): 4.47 µM
GI50 (SR): 2.19 µM
GI50 (LOX IMVI): 4.79 µM
GI50 (NCI-H322M): 1.91 µM
GI50 (UACC-62): 5.25 µM
GI50 (SK-MEL-5): 8.32 µM
GI50 [7]: 5.25 µM
GI50 (SNB-19): 10 µM
GI50 (OVCAR-4): 2.95 µM
GI50 (HOP-62): 11.5 µM
TGI [8]: 18.7 µM
GI50 (MCF7): 2.14 µM
GI50 (SF-295): 4.37 µM
GI50 (UO-31): 5.25 µM
GI50 (MDA-N): 5.25 µM
GI50 (CCRF-CEM): 3.09 µM
GI50 (COLO 205): 2.14 µM
TGI (COLO 205): 4.7 µM
GI50 (OVCAR-5): 3.16 µM
TGI [9]: 18.6 µM
GI50 (BT-549): 12.6 µM
GI50 (Malme-3M): 11.2 µM
GI50 (SF-268): 6.03 µM
GI50 (SW-620): 6.46 µM
TGI (SW-620): 19.8 µM
GI50 (A549): 3.89 µM
GI50 (RXF 393): 3.16 µM
GI50 [10]: 7.41 µM
TGI [11]: 15.8 µM
GI50 (SN12C): 4.17 µM
TGI (Leukemia cell): 32.1 µM
GI50 (PC-3): 2.82 µM
GI50 (MDA-MB-435): 3.63 µM
GI50 (HCC 2998): 0.204 µM
TGI (HCC 2998): 1.8 µM
GI50 (SK-MEL-28): 6.31 µM

CC(=O)OC[C@H]1O[C@@H](O[C@@H]2C[C@H]3C(C)(C)[C@H](OC(C)=O)CC[C@]3(C)[C@H]3CCC4=C([C@@H](C)C[C@@H](O)[C@H](O)C(C)(C)O)CC[C@@]4(C)[C@@]32C)[C@H](O)[C@@H](O)[C@@H]1O
GI50 (SK-MEL-2): 16.2 µM
GI50 (EKVX): 17 µM
GI50 (NCI-H522): 13.2 µM
GI50 (SNB-75): 13.2 µM
GI50 (KM12): 22.4 µM
TGI (KM12): 37.1 µM
TGI [1]: 30.2 µM
GI50 (HOP-92): 14.5 µM
GI50 (T47D): 16.6 µM
GI50 (MOLT-4): 13.2 µM
GI50 (SK-OV-3): 17.8 µM
GI50 (HCT-116): 14.1 µM
TGI (HCT-116): 27.2 µM
GI50 (U-251): 6.03 µM
GI50 (OVCAR-8): 15.8 µM
GI50 (A498): 17.4 µM
GI50 (NCI-H226): 17.4 µM
GI50 (K562): 12.6 µM
GI50 (NCI-H460): 15.8 µM
GI50 (HCT-15): 17 µM
TGI (HCT-15): 30.8 µM
TGI [2]: 29.1 µM
GI50 (NCI-H23): 16.6 µM
GI50 (CAKI-1): 15.5 µM
GI50 [3]: 12.9 µM
GI50 (M14): 17.4 µM
GI50 (ACHN): 17.8 µM
GI50 [4]: 15.1 µM
TGI [5]: 30.8 µM
GI50 (OVCAR-3): 14.5 µM
GI50 (UACC-257): 16.2 µM
GI50 (RPMI-8226): 10.5 µM
TGI [6]: 29.9 µM
GI50 (MDA-MB-231): 11.5 µM
GI50 (IGROV-1): 16.2 µM
GI50 (HT-29): 16.6 µM
TGI (HT-29): 30.1 µM
TGI (NSCLC): 30.3 µM
GI50 (DU-145): 17.8 µM
GI50 (SR): 12.3 µM
GI50 (LOX IMVI): 12.6 µM
GI50 (NCI-H322M): 17.4 µM
GI50 (UACC-62): 12.6 µM
GI50 (SK-MEL-5): 16.2 µM
GI50 [7]: 18.2 µM
GI50 (SNB-19): 14.5 µM
GI50 (OVCAR-4): 17 µM
GI50 (HOP-62): 16.2 µM
TGI [8]: 28.2 µM
GI50 (MCF7): 2.88 µM
GI50 (SF-295): 17.4 µM
GI50 (UO-31): 18.2 µM
GI50 (MDA-N): 17 µM
GI50 (CCRF-CEM): 15.8 µM
GI50 (COLO 205): 15.8 µM
TGI (COLO 205): 30.2 µM
GI50 (OVCAR-5): 17.8 µM
TGI [9]: 28.9 µM
GI50 (BT-549): 15.5 µM
GI50 (Malme-3M): 16.6 µM
GI50 (SF-268): 16.6 µM
GI50 (SW-620): 17 µM
TGI (SW-620): 30.7 µM
GI50 (A549): 19.1 µM
GI50 (RXF 393): 14.8 µM
GI50 [10]: 20.4 µM
TGI [11]: 30.4 µM
GI50 (SN12C): 16.2 µM
TGI (Leukemia cell): 32.2 µM
GI50 (PC-3): 14.5 µM
GI50 (MDA-MB-435): 15.8 µM
GI50 (HCC 2998): 12 µM
TGI (HCC 2998): 25.2 µM
GI50 (SK-MEL-28): 17 µM

Source: ChEMBL document CHEMBL1158870, “Antitumor agents. 180. Chemical Studies and cytotoxic evaluation of cumingianosides and cumindysoside A, antileukemic triterpene glucosides with a 14,18-cycloapotirucallane skeleton” (1997)
